From US20220073554A1, “LINCOSAMIDE ANTIBIOTICS AND USES THEREOF” (President and Fellows of Harvard College, priority 2017, published 2022)
≈ marks a conversion by molar mass, not a printed value. Like-named read-outs stand apart in the source and are kept apart here.

Experiments:
Assay type in all cases: cell-based
H. influenzae ATCC 49247 = assay: MIC against H. influenzae ATCC 49247; conditions: Haemophilus influenzae, ATCC49247; H. influenzae ATCC 49247; read-out: MIC
C. difficile BAA 1805 = assay: MIC against C. difficile BAA 1805; conditions: Clostridioides difficile, BAA1805; C. difficile BAA 1805; read-out: MIC
E. faecalis ATCC 29212 = assay: MIC against E. faecalis ATCC 29212; conditions: Enterococcus faecalis
[1] = test system: S. aureus BAA-1556 (USA 300); assay: microbe, parasite or virus in culture; conditions: Staphylococcus aureus
[2] = test system: E. faecalis MMX 847 Macrolide-Resistant; assay: MIC against E. faecalis MMX 847 Macrolide-Resistant; conditions: Enterococcus faecalis
E. coli ATCC 15922 = assay: MIC against E. coli ATCC 15922; conditions: Escherichia coli, ATCC15922
B. fragilis ATCC 25285 = assay: MIC against B. fragilis ATCC 25285; conditions: Bacteroides fragilis, ATCC25285; B. fragilis ATCC 25285; read-out: MIC
[3] = test system: S. aureus UNT96, NRS710, MP-618 (USA100, Erythro > 8); assay: microbe, parasite or virus in culture; conditions: Staphylococcus aureus
S. pyogenes ATCC 19615 = assay: MIC against S. pyogenes ATCC 19615; conditions: Streptococcus pyogenes, ATCC19615; S. pyogenes ATCC 19615; read-out: MIC
[4] = test system: E. coli MMX TolC parent strain; assay: MIC against E. coli MMX TolC parent strain; conditions: Escherichia coli
S. pneumoniae ATCC 49619 = assay: MIC against S. pneumoniae ATCC 49619; conditions: Streptococcus pneumoniae, ATCC49619; S. pneumoniae ATCC 49619; read-out: MIC
P. aeruginosa ATCC 27853 = assay: MIC against P. aeruginosa ATCC 27853; conditions: Pseudomonas aeruginosa, ATCC27853
[5] = test system: K. pneumoniae IHMA 658692; KPC-2; assay: microbe, parasite or virus in culture; conditions: Klebsiella pneumoniae
[6] = test system: S. pneumoniae MMX 3031 cMefA; assay: MIC against S. pneumoniae MMX 3031 cMefA; conditions: Streptococcus pneumoniae, MMX3031CMEFA
[7] = test system: S. pneumoniae TP 1537 (ermB + mefA); assay: MIC against S. pneumoniae TP 1537 (ermB + mefA); conditions: Streptococcus pneumoniae
[8] = test system: S. aureus UNT-146, MP-620, TP 506 (ermA); assay: microbe, parasite or virus in culture; conditions: Staphylococcus aureus
E. coli GUEST131 (NDM-1) = assay: microbe, parasite or virus in culture; conditions: Escherichia coli
E. coli MMX 0121 ΔTolC = assay: MIC against E. coli MMX 0121 ΔTolC; conditions: Escherichia coli
E. faecalis UNT-047 VRE = assay: microbe, parasite or virus in culture; conditions: Enterococcus faecalis
[9] = test system: P. aeruginosa MMX Mex parent strain; assay: MIC against P. aeruginosa MMX Mex parent strain; conditions: Pseudomonas aeruginosa
[10] = test system: S. pneumoniae TP 1579 (ermB + tet(M, O)); assay: MIC against S. pneumoniae TP 1579 (ermB + tet(M, O)); conditions: Streptococcus pneumoniae
[11] = test system: S. pneumoniae UNT-039, MP-627, TP1517 (mefA); assay: MIC against S. pneumoniae UNT-039, MP-627, TP1517 (mefA); conditions: Streptococcus pneumoniae
[12] = test system: S. pneumoniae UNT-038, MP-626, TP 160 (mefA); assay: MIC against S. pneumoniae UNT-038, MP-626, TP 160 (mefA); conditions: Streptococcus pneumoniae
K. pneumoniae UNT TEM-10 = assay: microbe, parasite or virus in culture; conditions: Klebsiella pneumoniae, UNTTEM10
S. aureus MMX 3035 cErmA = assay: MIC against S. aureus MMX 3035 cErmA; conditions: Staphylococcus aureus, MMX3035CERMA
[13] = test system: S. pyogenes UNT-014, MP-625 MacRes; assay: MIC against S. pyogenes UNT-014, MP-625 MacRes; conditions: Streptococcus pyogenes
[14] = test system: S. aureus UNT-120, MP-619, NR522 (USA 600, GISA); assay: microbe, parasite or virus in culture; conditions: Staphylococcus aureus, USA600
[15] = test system: S. pyogenes MMX 946 Macrolide-Resistant; assay: MIC against S. pyogenes MMX 946 Macrolide-Resistant; conditions: Streptococcus pyogenes
[16] = test system: S. aureus MP-549 msr(a) USA 300; assay: MIC against S. aureus MP-549 msr(a) USA 300; conditions: Staphylococcus aureus, USA300, S. aureus MP-549 msr(a) USA 300
S. aureus BAA 977 iErmA = assay: MIC against S. aureus BAA 977 iErmA; conditions: Staphylococcus aureus, BAA977
K. pneumoniae ATCC 10031 = assay: MIC against K. pneumoniae ATCC 10031; conditions: Klebsiella pneumoniae, ATCC10031; K. pneumoniae ATCC 10031; read-out: MIC
S. aureus ATCC 29213 = assay: MIC against S. aureus ATCC 29213; conditions: Staphylococcus aureus, ATCC29213, S. aureus ATCC 29213; read-out: MIC

Compound: CSC1O[C@H]([C@H](NC(=O)[C@H]2NC[C@@H]3CC=CCO[C@H]32)[C@H](C)Cl)C(O)[C@@H](O)[C@H]1O (some centres unmarked) [FSA-24035]
- MIC (H. influenzae ATCC 49247): 1 µg/mL (≈ 2.29 µM)
- MIC (C. difficile BAA 1805): 2 µg/mL (≈ 4.58 µM)
- MIC (E. faecalis ATCC 29212; ATCC29212): 16 µg/mL (≈ 36.6 µM)
- MIC [1]: > 32 µg/mL
- MIC [2]: > 64 µg/mL
- MIC (E. coli ATCC 15922): > 64 µg/mL
- MIC (B. fragilis ATCC 25285): 8 µg/mL (≈ 18.3 µM)
- MIC [3]: > 32 µg/mL
- MIC (S. pyogenes ATCC 19615): ≤ 0.0313 µg/mL
- MIC [4]: > 64 µg/mL
- MIC (S. pneumoniae ATCC 49619): ≤ 0.06 µg/mL
- MIC (P. aeruginosa ATCC 27853): > 64 µg/mL
- MIC [5]: > 32 µg/mL
- MIC [6]: ≤ 0.06 µg/mL
- MIC ([7]; S. pneumoniae TP 1537 (ermB + mefA), read-out: MIC): 32 µg/mL
- MIC [8]: > 32 µg/mL
- MIC (E. coli GUEST131 (NDM-1)): > 32 µg/mL
- MIC (E. coli MMX 0121 ΔTolC): 4 µg/mL (≈ 9.15 µM)
- MIC (E. faecalis UNT-047 VRE): > 32 µg/mL
- MIC [9]: > 64 µg/mL
- MIC [10]: ≤ 0.0313 µg/mL
- MIC [11]: ≤ 0.0313 µg/mL
- MIC [12]: ≤ 0.0313 µg/mL
- MIC (K. pneumoniae UNT TEM-10): > 32 µg/mL
- MIC (S. aureus MMX 3035 cErmA): > 64 µg/mL
- MIC [13]: ≤ 0.0313 µg/mL
- MIC [14]: > 32 µg/mL
- MIC [15]: 16 µg/mL (≈ 36.6 µM)
- MIC [16]: 0.5 µg/mL (≈ 1.14 µM)

Compound: CSC1O[C@H]([C@H](NC(=O)[C@H]2NC[C@@H]3CC(F)(F)CCO[C@H]32)[C@H](C)Cl)C(O)[C@@H](O)[C@H]1O (some centres unmarked) [FSA-24036]
- MIC (H. influenzae ATCC 49247): 4 µg/mL (≈ 8.42 µM)
- MIC (C. difficile BAA 1805): 2 µg/mL (≈ 4.21 µM)
- MIC (E. faecalis ATCC 29212; ATCC29212, read-out: MIC): 4 µg/mL (≈ 8.42 µM)
- MIC [1]: > 32 µg/mL
- MIC ([2]; E. faecalis MMX 847 Macrolide-Resistant (MacRes), read-out: MIC): > 64 µg/mL
- MIC (E. coli ATCC 15922; E. coli ATCC 15922, read-out: MIC): > 64 µg/mL
- MIC (B. fragilis ATCC 25285): 4 µg/mL (≈ 8.42 µM)
- MIC (S. aureus BAA 977 iErmA): 0.5 µg/mL (≈ 1.05 µM)
- MIC [3]: > 32 µg/mL
- MIC (S. pyogenes ATCC 19615): ≤ 0.0313 µg/mL
- MIC ([4]; E. coli MMX TolC parent strain, read-out: MIC): > 64 µg/mL
- MIC (S. pneumoniae ATCC 49619): ≤ 0.06 µg/mL
- MIC (P. aeruginosa ATCC 27853; P. aeruginosa ATCC 27853, read-out: MIC): > 64 µg/mL
- MIC [5]: > 32 µg/mL
- MIC [6]: ≤ 0.06 µg/mL
- MIC [7]: > 32 µg/mL
- MIC [8]: > 32 µg/mL
- MIC (E. coli GUEST131 (NDM-1)): > 32 µg/mL
- MIC (E. coli MMX 0121 ΔTolC): 8 µg/mL (≈ 16.8 µM)
- MIC (E. faecalis UNT-047 VRE): > 32 µg/mL
- MIC ([9]; P. aeruginosa MMX Mex parent strain, read-out: MIC): > 64 µg/mL
- MIC [10]: ≤ 0.0313 µg/mL
- MIC [11]: ≤ 0.0313 µg/mL
- MIC [12]: ≤ 0.0313 µg/mL
- MIC (K. pneumoniae UNT TEM-10): > 32 µg/mL
- MIC (S. aureus MMX 3035 cErmA; S. aureus MMX 3035 cErmA, read-out: MIC): > 64 µg/mL
- MIC [13]: ≤ 0.0313 µg/mL
- MIC [14]: > 32 µg/mL
- MIC ([15]; S. pyogenes MMX 946 Macrolide-Resistant (MacRes), read-out: MIC): 4 µg/mL (≈ 8.42 µM)

Compound: CSC1O[C@H]([C@H](NC(=O)[C@@H]2[C@@H]3OCCCC[C@H]3CN2C)[C@H](C)Cl)C(O)[C@@H](O)[C@H]1O (some centres unmarked) [FSA-24040]
- MIC (H. influenzae ATCC 49247): 8 µg/mL (≈ 17.7 µM)
- MIC [1]: > 32 µg/mL
- MIC (E. coli ATCC 15922): > 32 µg/mL
- MIC [3]: > 32 µg/mL
- MIC (S. pyogenes ATCC 19615): ≤ 0.0313 µg/mL
- MIC (S. pneumoniae ATCC 49619): ≤ 0.0313 µg/mL
- MIC (P. aeruginosa ATCC 27853): > 32 µg/mL
- MIC (K. pneumoniae ATCC 10031): 8 µg/mL (≈ 17.7 µM)
- MIC (S. aureus ATCC 29213): ≤ 0.0313 µg/mL
- MIC [5]: > 32 µg/mL
- MIC [7]: > 32 µg/mL
- MIC [8]: > 32 µg/mL
- MIC (E. coli GUEST131 (NDM-1)): > 32 µg/mL
- MIC (E. faecalis UNT-047 VRE): > 32 µg/mL
- MIC [10]: ≤ 0.0313 µg/mL
- MIC [11]: ≤ 0.0313 µg/mL
- MIC [12]: ≤ 0.0313 µg/mL
- MIC [13]: ≤ 0.0313 µg/mL
- MIC [14]: > 32 µg/mL
